According to article PMC7228089, “Odiparcil, a potential glycosaminoglycans clearance therapy in mucopolysaccharidosis VI—Evidence from in vitro and in vivo models” (PLoS ONE, 2020):

Tested on: Arsb^- mice
Assay: Sulphated GAG accumulation in liver and kidney (Alcian Blue staining, Blyscan)
Assay type: in vivo
Settings: for Liver sulphated GAG accumulation / Kidney sulphated GAG accumulation: Arsb^- mice; for Liver sulphated GAG accumulation: 6 months of treatment; for Kidney sulphated GAG accumulation: Alcian Blue
Procedure: MPS VI model nonsense mutation Arsb^m1J homozygous mice (referred to as Arsb^- throughout the manuscript) and WT littermates were obtained from internal breeding of stock mice derived from The Jackson Laboratory strain No: 005598 (C57BL/6J-Arsb^m1J/GrsrJ). Genotyping and Arsb^m1J mutation identification were performed according to the protocol provided by The Jackson Laboratory. Each study group contained mix of male and female: 6 animals in disease progression studies and between 8 and 12 animals in odiparcil treatment studies.
Housing conditions. The animals were housed in groups of 3–10 (for mice) or 2 (for rats) in polypropylene cages (floor area = 1032 cm^2) under standard conditions: room temperature (22 ± 2°C), hygrometry (55 ± 10%), light/dark cycle (12h/12h), air replacement (15–20 volumes/hour), water and food ad libitum. Mice were allowed to habituate for at least 5 days prior to experimentation. Mice were numbered by marking their tail using indelible markers. For the early disease model (treatment starting in juvenile, 4 weeks old mice), odiparcil administration in the weeks 1 to 6 was done per gavage with odiparcil in Methylcellulose 400 cps 1% / Poloxamer 188 0.1% / Water, freshly prepared every week. Later on, administration was per chow diet with odiparcil mixed before diet granulation. For advanced disease treatment (treatment starting in adult, 3 months old mice), administration was per diet from the beginning of the study. WT and Arsb^- animals were randomized into groups: control and two doses of odiparcil: 1.5 g odiparcil per kg of diet and 4.5 g odiparcil per kg of diet. For urine collection, animals were placed for 24 hours in standard metabolism cages (2 or 3 animals per cage). At the end of the studies, animals were anesthetized (O2 / isoflurane), blood for smears was collected from ocular sinus and after euthanasia samples from liver and kidney (snap frozen for total GAG analysis by Blyscan method or fixed for histology, see below) and from trachea and knee from the left hind leg were collected.
Total sulphated GAG in cell culture media were determined colorimetrically by DMMB method (described in [31] adapted for cell culture media). Total sulphated GAG in snap frozen liver and kidney samples and urine were measured using Blyscan assay from Biocolor Company (UK) following manufacturer’s instructions. Urine samples were processed directly according to the kit manual. For GAG in tissues quantification, individual pieces (approximately 50 mg) were removed from the frozen samples (liver and kidney), weighed and digested in 1 mL papain solution prepared according to the Blyscan kit protocol. After the extraction, 20 μL from each reaction were used for sulphated GAG determination following the Blyscan kit protocol. The obtained values for sulphated GAG were adjusted to the volume of papain reaction and were normalized to the weight of the tissue used or, in the case of urine samples, to creatinine levels.
GAG tissue accumulation in liver and kidney sections was estimated based on Alcian Blue staining performed at low pH (pH 1), at which the dye stained predominantly sulphated GAG. Two slides at different levels per tissue block were used. Staining with 1% Alcian Blue in hydrochloric acid was performed on automated Leica Autostainer. […] Then for each proof image, an RGB index was calculated that was the mean of Red + Green + Blue intensities of all non-black pixels. […]

## Cc1cc(=O)oc2cc(O[C@@H]3SC[C@@H](O)[C@H](O)[C@H]3O)ccc12 [Odiparcil, 4-methyl-7-(5-thio-β-D-xylopyranosyloxy)-2 H-chromen-2-one]
Early disease model, 1.5 and 4.5 g/kg diet
  Liver sulphated GAG accumulation: significantly reduced liver GAG at both doses
Early disease model, 6 months, effect not significant
  Kidney sulphated GAG accumulation: reduced kidney GAG
Established disease model, highest dose (4.5 g/kg diet)
  Liver sulphated GAG accumulation: significantly reduced liver GAG
Established disease model, 6 months
  Kidney sulphated GAG accumulation: significant only in the latter model
Wild type mice, two doses of odiparcil, 6 months
  Liver and kidney GAG levels in wild type animals: no significant effects on GAG levels
